Seven compounds from patent US20240308998A1, “PYRROLOPYRIDONE DERIVATIVES USEFUL IN THE TREATMENT OF CANCER” (Tay Therapeutics Limited, priority 2021, published 2024) can be followed below.

In one series the target is T1, BRD4 BD2 (Homo sapiens, UniProt O60885).
T1 construct: HEK293 cells were transfected using NanoLuc-BRD4-BD1 or NanoLuc-BRD4-BD2 fusion vectors; host or cells: HEK293
The experiment in a line: NanoBRET bromodomain assay, BRD4 BD2. The format is cell-based. The settings on record: for Fold selectivity BRD4 BD1/BD2: IC50 BD1/IC50 BD2; for IC50: NanoBRET, HEK293 cells transfected with NanoLuc-BRD4-BD2. The method in brief:
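HEK293 cells transfected with NanoLuc-BRD4-BD2 fusion for 20-24 h, then treated with compound plus 1x tracer for 2 h at 37° C. Donor 450 nm / acceptor 610 nm emissions converted to background-corrected mBU; IC50 by nonlinear regression; selectivity as IC50 BD1/IC50 BD2.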
(In BRET a luciferase serves as donor, and the signal depends on an acceptor being close.)

Another series concerns the target T2, BRD4 BD1 (Homo sapiens, UniProt O60885).
T2 construct: HEK293 cells were transfected using NanoLuc-BRD4-BD1 or NanoLuc-BRD4-BD2 fusion vectors; host or cells: HEK293
In words: NanoBRET bromodomain assay, BRD4 BD1. The format is cell-based. The settings on record: HEK293 cells transfected with NanoLuc-BRD4-BD1. Summed up: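 Transfected HEK293 cells expressing NanoLuc-BRD4-BD1 were incubated with 1x tracer and serially diluted compound for 2 h at 37 °C, then given Nano-Glo substrate plus extracellular NanoLuc inhibitor. Donor 450 nm and acceptor 610 nm emissions were converted to background-corrected mBU, and IC50 was derived by nonlinear regression.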

A short description of the next series: Mouse plasma stability. In kind it is in vitro ADME. To be noted: 10 μM in mouse plasma, 37° C. Here is the method:
The stock solution of compound (10 or 50 mM) was prepared in DMSO. From the stock solution, a working solution of compound (500 uM) was prepared in DMSO (100%). To 735 μL of mouse plasma, 15 μL of working solution of compound was added—resulting in a final concentration of 10 μM (2% DMSO) for the compound. The sample was then incubated at 37° C. Aliquot was withdrawn at time-points—0, 15, 30, 60, 90 and 120 mins. The reaction was stopped by using chilled acetonitrile containing internal standard (IS). The samples were centrifuged and the supernatants analyzed using LC-MS/MS. The percent remaining of the compound at each time point was calculated with respect to the control sample (0 min time-point).

Series [1] can be described thus: Intrinsic clearance in mouse liver microsomes. In kind it is in vitro ADME. The settings on record: 1 uM, NADPH. As for the experimental part: A 50 mM stock solution (in DMSO) was prepared for the compound. From the stock solution, a working solution of 0.5 mM was prepared by diluting the compound in DMSO. This concentration of working solution was prepared considering a final concentration of 1 uM with 0.1% DMSO. The compound (1 uL of working solution) was spiked in PBS with pH 7.4 (22 uL) at a concentration of 1 uM. Subsequently, 110 uL of 10 mM NADPH was added (as a co-factor). The sample was incubated at 37° C. for 15 min. Following this, pre-warmed mouse liver microsomes (27.5 uL; final protein conc. 0.5 mg/mL) were added. The samples were then incubated at 37° C. Aliquots of samples were withdrawn at 0, 5, 15, 30, 45 and 60 min. The reaction was stopped by using chilled acetonitrile containing internal standard. The samples were centrifuged and the supernatants analysed by LC-MS/MS. The percent compound remaining at each time point was calculated with respect to that of the 0 min sample. The data were then analysed to calculate half-life and intrinsic clearance (CLint). Note that control samples were run without NADPH and blank samples were prepared using DMSO without the test compound.

In general, IC50 refers to the concentration that gives 50% inhibition. In the case of `CCNC(=O)c1cc2c(-c3ccn(C)c(=O)c3Oc3c(C)cc(F)cc3C)cn(C)c(=O)c2[nH]1` [Comparative Example A, reference compound], the “Fold selectivity BRD4 BD1/BD2” value at BRD4 BD2 was “xx (Fold >50 and ≤200)”. The IC50 against BRD4 BD2 was 50 to 200 nM; against BRD4 BD1 it was more than 1000 nM. The “Mouse Plasma Stability % remaining at 120 minutes” value (from here on “Mouse Plasma Stability % remaining”) in the series “Mouse plasma stability” was found to be 7%. Besides, the “Mouse Microsomal Stability (intrinsic clearance)” value (“Mouse Microsomal Stability” for short) in series [1] came out at 0.9 ml/min/g liver.

For `Cc1cc(F)cc(C)c1Oc1c(-c2cn(C)c(=O)c3[nH]c(C(=O)NC(C)(C)C)cc23)ccn(C)c1=O` [Comparative Example B, reference compound], the “Mouse Plasma Stability % remaining” value in the series “Mouse plasma stability” came to 100%. Further, in series [1], the “Mouse Microsomal Stability” value turned out to be 5.1 ml/min/g liver.

For `Cc1cnc(-c2cc3c(-c4cc(=O)n(C)cc4Oc4c(C)cccc4C)cn(C)c(=O)c3[nH]2)[nH]1` [Example 1, 4-(5-(2,6-dimethylphenoxy)-1-methyl-2-oxo-1,2-dihydropyridin-4-yl)-6-methyl-2-(5-methyl-1H-imidazol-2-yl)-1,6-dihydro-7H-pyrrolo [2,3-c] pyridin-7-one], at BRD4 BD2, the “Fold selectivity BRD4 BD1/BD2” value is “xxx (Fold >200)” and the IC50 was not above 50 nM. Besides, at BRD4 BD1, the IC50 was more than 1000 nM. In addition, the “Mouse Plasma Stability % remaining” value in “Mouse plasma stability” was 95%. The “Mouse Microsomal Stability” value in series [1] is listed as 0.7 ml/min/g liver.

On to `Cc1cccc(C)c1Oc1cn(C)c(=O)cc1-c1cn(C)c(=O)c2[nH]c(-c3ncc[nH]3)cc12` [Example 2, 4-(5-(2,6-dimethylphenoxy)-1-methyl-2-oxo-1,2-dihydropyridin-4-yl)-2-(1H-imidazol-2-yl)-6-methyl-1,6-dihydro-7H-pyrrolo [2,3-c] pyridin-7-one], for which, at BRD4 BD2, the “Fold selectivity BRD4 BD1/BD2” value is “xx (Fold >50 and ≤200)”; the IC50 was not above 50 nM. In addition, the IC50 at BRD4 BD1 was more than 1000 nM. Further, the “Mouse Plasma Stability % remaining” value in “Mouse plasma stability” was 100%. In series [1], the “Mouse Microsomal Stability” value is recorded as 0.9 ml/min/g liver.

Regarding `Cc1cccc(C)c1Oc1cn(C)c(=O)cc1-c1cn(C)c(=O)c2[nH]c(-c3ncc(C(F)(F)F)[nH]3)cc12` [Example 3, 4-(5-(2,6-dimethylphenoxy)-1-methyl-2-oxo-1,2-dihydropyridin-4-yl)-6-methyl-2-(5-(trifluoromethyl)-1H-imidazol-2-yl)-1,6-dihydro-7H-pyrrolo[2,3-c] pyridin-7-one], the “Fold selectivity BRD4 BD1/BD2” value at BRD4 BD2 is “xxx (Fold >200)”. In addition, the values for the IC50 against BRD4 BD2 and at BRD4 BD1 were not above 50 nM and more than 1000 nM, respectively. Further, the “Mouse Plasma Stability % remaining” value in the series “Mouse plasma stability” worked out at 77%. Further, the “Mouse Microsomal Stability” value in series [1] amounted to 0.5 ml/min/g liver.

On to `Cc1cccc(C)c1Oc1cn(C)c(=O)cc1-c1cn(C)c(=O)c2[nH]c(C3=NCCN3)cc12` [Example 4, 2-(4,5-dihydro-1H-imidazol-2-yl)-4-(5-(2,6-dimethylphenoxy)-1-methyl-2-oxo-1,2-dihydropyridin-4-yl)-6-methyl-1,6-dihydro-7H-pyrrolo[2,3-c]pyridin-7-one], for which, on BRD4 BD2, the “Fold selectivity BRD4 BD1/BD2” value was “x (Fold >2 and ≤50)”; the IC50 fell in the range of 200 to 1000 nM. The compound also came in with an IC50 against BRD4 BD1 of more than 1000 nM. Further, the “Mouse Microsomal Stability” value in series [1] is reported as 0.6 ml/min/g liver.

On to `Cc1cnc(-c2cc3c(-c4cc(=O)n(C)cc4-c4ccccc4)cn(C)c(=O)c3[nH]2)[nH]1` [Example 5, 6-methyl-2-(5-methyl-1H-imidazol-2-yl)-4-(1-methyl-2-oxo-5-phenyl-1,2-dihydropyridin-4-yl)-1,6-dihydro-7H-pyrrolo [2,3-c] pyridin-7-one], for which, on BRD4 BD2, the “Fold selectivity BRD4 BD1/BD2” value is “xx (Fold >50 and ≤200)”; the IC50 fell in the range of 50 to 200 nM. Further, the IC50 at BRD4 BD1 was more than 1000 nM. In addition, in series [1], the “Mouse Microsomal Stability” value was 0.6 ml/min/g liver.
